Measured values as given in the Deep4Chem optical property database.

Assay: solvent given as SMILES
Conditions: in CN(C)C=O

emission maximum [nm]	Compound
543	CC(=O)c1ccc2ccc3c(NCCC(=O)NCCCCCCc4nc5c(=O)[nH]c(N)nc5n4[C@H]4C[C@H](O)[C@@H](CO)O4)ccc4ccc1c2c43

Same assay, conditions: in CO

Compound	emission maximum [nm]
CC1(C)Nc2cc(Cl)ccc2-c2[nH]c3ccccc3c(=O)c21	513
Oc1ccccc1/C=N/c1ccc(Cn2cncn2)cc1	430
CC1=C(c2cccs2)C(C)=[N+]2C1=C(c1ccccc1)c1c(C)c(-c3cccs3)c(C)n1[B-]2(F)F	610
C(=C\c1c[nH]cn1)/c1cc[n+]2ccc(/C=C/c3c[nH]cn3)cc2c1	527

Further lines, results first:

emission maximum [nm]	Compound
507	COc1ccc(-c2[nH]c(=O)n3c2-c2ccccc2C3=O)c(OC)c1
668	CN1/C(=C/C=C(/C=C/c2sc3ccccc3[n+]2C)c2cc(F)cc(F)c2)Sc2ccccc21
420	COC(=O)c1nc2c(N(C)C)nc(N)nc2n1Cc1ccccc1
565	CC(=O)c1ccc2ccc3c(NCCC(=O)NCCCCCCc4nc5c(=O)[nH]c(N)nc5n4[C@H]4C[C@H](O)[C@@H](CO)O4)ccc4ccc1c2c43

Same assay, conditions: in CS(C)=O

Compound	emission maximum [nm]
CC1(C)Nc2cc(Cl)ccc2-c2[nH]c3ccccc3c(=O)c21	494
Oc1ccccc1/C=N/c1ccc(Cn2cncn2)cc1	437.01
CN1/C(=C/C=C(/C=C/c2sc3ccccc3[n+]2C)c2cc(F)cc(F)c2)Sc2ccccc21	675
CN(C)c1ccc2nc(/C=C/c3ccccc3)c(=O)oc2c1	581
CN(C)c1ccc2c3c(ccc2c1)C(=O)CCC3	453
O=C1CCCC2=C1C(c1ccc([N+](=O)[O-])cc1)c1c(c3ccccc3oc1=O)N2 (stereo not given)	441
CN(C)c1ccc(C2=[N+]3C(=Nc4c(-c5ccc(OCCCCS(=O)(=O)[O-])cc5)cc(-c5ccc(N(C)C)cc5)n4[B-]3(F)F)C(c3ccc(OCCCCS(=O)(=O)[O-])cc3)=C2)cc1	826
CC(=O)c1ccc2ccc3c(NCCC(=O)NCCCCCCc4nc5c(=O)[nH]c(N)nc5n4[C@H]4C[C@H](O)[C@@H](CO)O4)ccc4ccc1c2c43	551

Same assay, conditions: in Cc1ccccc1

Compound	emission maximum [nm]
CC1(C)Nc2cc(Cl)ccc2-c2[nH]c3ccccc3c(=O)c21	460
Oc1ccccc1/C=N/c1ccc(Cn2cncn2)cc1	326
CC1=C(c2cccs2)C(C)=[N+]2C1=C(c1ccccc1)c1c(C)c(-c3cccs3)c(C)n1[B-]2(F)F	609
COc1ccccc1C1=NC2c3cccc4cccc(c34)C2N1c1ccccc1 (stereo not given)	379
c1ccc(-c2nc(-c3ccccc3)c(-c3ccccc3)o2)cc1	381
CN(C)c1ccc2nc(/C=C/c3ccccc3)c(=O)oc2c1	523
O=C1c2ccccc2S(=O)(=O)c2ccc(-n3c4ccccc4c4ccccc43)cc21	535.5
CN(C)c1ccc2c3c(ccc2c1)C(=O)CCC3	417
CCn1c2ccccc2c2cc(/C=C/c3cc(/C=C/c4ccc5c(c4)c4ccccc4n5CC)ncn3)ccc21	440
Cc1cc(C)c(B(c2ccc(N3c4ccccc4C(C)(C)c4ccccc43)cc2)c2c(C)cc(C)cc2C)c(C)c1	484
O=C(/C=C(\O)c1ccc(N2c3ccccc3Oc3ccccc32)cc1)c1ccc(N2c3ccccc3Oc3ccccc32)cc1	594

Same assay, conditions: in ClC(Cl)(Cl)Cl

Compound	emission maximum [nm]
CC1(C)Nc2cc(Cl)ccc2-c2[nH]c3ccccc3c(=O)c21	451
COc1ccc(/C=C/C2=[O+][B-](F)(F)OC(/C=C/c3ccc(OC)c4ccccc34)=C2c2ccccc2)c2ccccc12	577

Same assay, conditions: in ClC(Cl)Cl

Compound	emission maximum [nm]
C[Si](C)(C)c1sc([Si](C)(C)C)c2c1sc1c3sc4c(sc5c4sc4c([Si](C)(C)C)sc([Si](C)(C)C)c45)c3sc12	442
COc1ccc2cc(C3=[N+]4C(=Nc5c(-c6ccccc6)cc(-c6ccc7cc(OC)ccc7c6)n5[B-]4(F)F)C(c4ccccc4)=C3Br)ccc2c1	728
CN(C)c1ccc2nc(/C=C/c3ccccc3)c(=O)oc2c1	542
O=C1c2ccccc2S(=O)(=O)c2ccc(-n3c4ccccc4c4ccccc43)cc21	595.5
CCCCCCc1cc2c3cscc3c3cc(CCCCCC)sc3c2s1	442
Cc1cc2c(o1)=CC1=Cc3cc4oc(C)cc4n3[B-](F)(F)[N+]=21	583
c1cc2ccc3sc4ccc5cccc6c(c1)c2c3c4c56	418

The next lines start with the values.

emission maximum [nm]	Compound
601	Cc1cc(C)c(C2=C3C=CC(c4cccc5ccccc45)=[N+]3[B-](F)(F)n3c2ccc3-c2cccc3ccccc23)c(C)c1
479	COc1ccc(-c2nc(-c3ccc(OC)cc3)n3ccccc23)cc1
636	CCN(CC)c1ccc2c(c1)oc(=O)c1c(-c3ccccc3C(=O)O)c3ccc(=[N+](CC)CC)cc-3oc12

Same assay, conditions: in ClCCl

Compound	emission maximum [nm]
CC1(C)Nc2cc(Cl)ccc2-c2[nH]c3ccccc3c(=O)c21	473
Oc1ccccc1/C=N/c1ccc(Cn2cncn2)cc1	363
CC1=C(c2cccs2)C(C)=[N+]2C1=C(c1ccccc1)c1c(C)c(-c3cccs3)c(C)n1[B-]2(F)F	609
COc1ccc2cc(C3=[N+]4C(=Nc5c(-c6ccccc6)cc(-c6ccc7cc(OC)ccc7c6)n5[B-]4(F)F)C(c4ccccc4)=C3Br)ccc2c1	728
CN(C)c1ccc2nc(/C=C/c3ccccc3)c(=O)oc2c1	547
O=C1c2ccccc2S(=O)(=O)c2ccc(-n3c4ccccc4c4ccccc43)cc21	609.5
CN(C)c1ccc2c3c(ccc2c1)C(=O)CCC3	440
CCn1c2ccccc2c2cc(/C=C/c3cc(/C=C/c4ccc5c(c4)c4ccccc4n5CC)ncn3)ccc21	492
CCCCN1C(=O)C2=C(c3ccc(-c4ccc5c(c4)C(C)(C)c4ccccc4-5)cc3)[N-]C(=O)C2=C1c1ccc(-c2ccc3c(c2)C(C)(C)c2ccccc2-3)cc1	635
Cc1cc(C)c(B(c2ccc(N3c4ccccc4C(C)(C)c4ccccc43)cc2)c2c(C)cc(C)cc2C)c(C)c1	540.77
COc1ccc(/C=C/C2=[O+][B-](F)(F)OC(/C=C/c3ccc(OC)c4ccccc34)=C2c2ccccc2)c2ccccc12	633
C(#Cc1cc(C#Cc2cccs2)c(C#Cc2cccs2)c(C#Cc2cccs2)c1C#Cc1cccs1)c1cccs1	425
C=CCOc1nnc(OCCC(F)(F)C(F)(F)C(F)(F)C(F)(F)C(F)(F)C(F)(F)C(F)(F)C(F)(F)F)nn1	572

More lines, now with the values ahead:

emission maximum [nm]	Compound
488	COc1ccc(-c2[nH]c(=O)n3c2-c2ccccc2C3=O)c(OC)c1
403	COc1ccc(-c2ccc(-c3cc(-c4ccccn4)nc(-c4ccccn4)c3)cc2)cc1
358	Fc1ccc(-c2ccc(-c3cc(-c4ccccn4)nc(-c4ccccn4)c3)cc2)c(F)c1
511	Cn1c(=O)cc(C(=O)c2ccccc2)c2sc(-c3ccc(C(F)(F)F)cc3)cc21
393	COC(=O)c1nc2c(N(C)C)nc(N)nc2n1Cc1ccccc1
469	COC(=O)c1cc(=O)n(C)c2cc(-c3ccccc3OC)sc12
627	CC(C)[Si](C#Cc1c2nc3ccccc3nc2c(C#C[Si](C(C)C)(C(C)C)C(C)C)c2nc3c4ccccc4c(=O)c4ccccc4c3nc12)(C(C)C)C(C)C
415	CC(C)(C)NC(=O)c1cccc2ccc3c4ccc(Cl)cc4c4cc(Cl)ccc4c3c12

Same assay, conditions: in Clc1ccccc1

Compound	emission maximum [nm]
CN(C)c1ccc2c3c(ccc2c1)C(=O)CCC3	423

Same assay, conditions: in O

emission maximum [nm]	Compound
671	CN1/C(=C/C=C(/C=C/c2sc3ccccc3[n+]2C)c2cc(F)cc(F)c2)Sc2ccccc21
646	CCN(CC)c1ccc2c(c1)oc(=O)c1c(-c3ccccc3C(=O)O)c3ccc(=[N+](CC)CC)cc-3oc12
573	CC(=O)c1ccc2ccc3c(NCCC(=O)NCCCCCCc4nc5c(=O)[nH]c(N)nc5n4[C@H]4C[C@H](O)[C@@H](CO)O4)ccc4ccc1c2c43

Compound	emission maximum [nm]
CC1(C)Nc2cc(Cl)ccc2-c2[nH]c3ccccc3c(=O)c21	536

Same assay, conditions: in O=P(c1ccccc1)(c1ccccc1)c1ccccc1Oc1ccccc1P(=O)(c1ccccc1)c1ccccc1

Compound	emission maximum [nm]
N#Cc1cc(C#N)c(-n2c3ccccc3c3cc(-c4cccc5c4c4ccccc4n5-c4cc(-n5c6ccccc6c6ccccc65)c(C#N)cc4C#N)ccc32)cc1-n1c2ccccc2c2ccccc21	448

Same assay, conditions: in OCC(F)(F)F

emission maximum [nm]	Compound
560	C=CCOc1nnc(OCCC(F)(F)C(F)(F)C(F)(F)C(F)(F)C(F)(F)C(F)(F)C(F)(F)C(F)(F)F)nn1

Same assay, conditions: in OCC(O)CO

emission maximum [nm]	Compound
567	CC(=O)c1ccc2ccc3c(NCCC(=O)NCCCCCCc4nc5c(=O)[nH]c(N)nc5n4[C@H]4C[C@H](O)[C@@H](CO)O4)ccc4ccc1c2c43

Same assay, conditions: in OCCOCCO

Compound	emission maximum [nm]
N#Cc1ccc(-c2ccc(C3=CCC(c4ccccc4)CC3)s2)s1 (stereo not given)	452

Same assay, conditions: in c1ccc2c(c1)c1ccccc1n2-c1ccc(-c2ccc(-n3c4ccccc4c4ccccc43)cc2)cc1

Compound	emission maximum [nm]
O=C(c1ccc(N2c3ccccc3Sc3ccccc32)cc1)c1ccc2sc3ccccc3c2c1	524
O=C(/C=C(\O)c1ccc(N2c3ccccc3Oc3ccccc32)cc1)c1ccc(N2c3ccccc3Oc3ccccc32)cc1	550.32

Same assay, conditions: in c1ccccc1

Compound	emission maximum [nm]
CC1(C)Nc2cc(Cl)ccc2-c2[nH]c3ccccc3c(=O)c21	462
Nc1cccc2c1-c1ccccc1C2=O	544

Same assay, conditions: in c1ccncc1

Compound	emission maximum [nm]
N#Cc1ccc(-c2ccc(C3=CCC(c4ccccc4)CC3)s2)s1 (stereo not given)	452
